These results are taken from US20170360912A1, “CHITOSAN-BASED HYDROGEL AND APPLICATIONS THEREOF” (priority 2014, published 2017).

Series [1] can be described thus: Doxycycline denaturation on mixing, spectrometry. The format is physicochemical. The text has this: Addition of an anti-oxidant was however required for long term stability.
Series [2] in a line: Measurement of pH and osmolality (Example 2). It is filed as physicochemical. To be noted: FIG. 8 panels A-C. As for the experimental part: After 24 hours of gelation at 37° C., each hydrogel was pressed and filtered in order to recover entrapped solution. The pH of the extracted liquids was measured at room temperature using a pH meter (UltraBasic pH-meter, Denver Instrument). The impact of GA concentration of gels prepared with culture medium (as detailed in Section 2.2.4) on the final osmolality of hydrogels was measured using an osmometer (Advanced® Micro Osmometer, Model 3300, Advanced Instruments Inc.).

Series [3] deals with endothelial-derived cells (EA.hy 926). To be noted: SHC 0.1M; cited from earlier work.
The conditions of series [4]: BGP pKa,2 at 25° C.; cited from earlier work.

Turning to `C[C@H]1c2cccc(O)c2C(=O)C2=C(O)[C@]3(O)C(=O)C(C(N)=O)=C(O)[C@@H](N(C)C)[C@@H]3[C@@H](O)[C@@H]21` [doxycycline], the “drug stability on direct addition in the CH or GA solution” value in series [1] is recorded as “drug denaturation”. Further, the “drug stability on addition in the CH-GA solution” value in series [1] (room temperature) is listed as “avoid drug denaturation”.
Turning to `O=C([O-])O.[Na+]` [SHC, Sodium hydrogen carbonate], the “slope of osmolality versus gelling agent concentration” value in series [2] was 1475. Also, the “damage on endothelial-derived cells” value in series [3] was “no damage”. In addition, the pKa (in general, the negative logarithm of the acid dissociation constant) in series [4] is reported as 6.35.
`O.O.O.O.O.O=P([O-])([O-])OC(CO)CO.[Na+].[Na+]` [BGP, β-Glycerol phosphate disodium salt pentahydrate, reference compound]: in series [2], the “slope of osmolality versus gelling agent concentration” value is recorded as 1789. The pKa in series [4] is reported as 6.65.
